Measurements from the supplement of paper PMC10307832.

Columns and labels:
Experiment in all cases: relative viability (nuclei count vs DMSO), 5 days (fraction); higher = more cells survive
[1] = compound: CC(C)C[C@H](NC(=O)[C@H](CCc1ccccc1)NC(=O)CN1CCOCC1)C(=O)N[C@@H](Cc1ccccc1)C(=O)N[C@@H](CC(C)C)C(=O)[C@@]1(C)CO1 [Carfilzomib] + CC(=O)c1c(C)c2cnc(Nc3ccc(N4CCNCC4)cn3)nc2n(C2CCCC2)c1=O [Palbociclib] (partner 0.5 µM)
Method in brief: (§1)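 The day after seeding in 1536-well plates, lung cancer cell lines were treated by pin tool with a single drug, or with a fixed anchor-drug dose together with five library-drug doses (not always all listed) in √10 steps. After 5 days, a combined fix-and-stain solution (final 0.05% Triton X-100, 1% formaldehyde, 1 ug/ml Hoechst) was added. Nuclei counted on 4× images gave relative viability as treated counts over vehicle counts, reported as the median of duplicate plates.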

[2] = compound: CC(C)C[C@H](NC(=O)[C@H](CCc1ccccc1)NC(=O)CN1CCOCC1)C(=O)N[C@@H](Cc1ccccc1)C(=O)N[C@@H](CC(C)C)C(=O)[C@@]1(C)CO1 [Carfilzomib] + CS(=O)(=O)N1CCN(Cc2cc3nc(-c4cccc5[nH]ncc45)nc(N4CCOCC4)c3s2)CC1 [Pictilisib] (partner 1 µM)
Method in brief: as §1

[3] = compound: CC(C)C[C@H](NC(=O)[C@H](CCc1ccccc1)NC(=O)CN1CCOCC1)C(=O)N[C@@H](Cc1ccccc1)C(=O)N[C@@H](CC(C)C)C(=O)[C@@]1(C)CO1 [Carfilzomib] + Cc1cc(Nc2cc(N3CCN(C)CC3)nc(Sc3ccc(NC(=O)C4CC4)cc3)n2)n[nH]1 [Tozasertib] (partner 0.1 µM)
Method in brief: as §1

[4] = compound: C[C@@H](Oc1cc(-c2cnn(C3CCNCC3)c2)cnc1N)c1c(Cl)ccc(F)c1Cl [Crizotinib] + CC(=O)Nc1cccc(-n2c(=O)n(C3CC3)c(=O)c3c(Nc4ccc(I)cc4F)n(C)c(=O)c(C)c32)c1 [Trametinib] (partner 0.02 µM)
Method in brief: as §1

Cell Line | relative viability ([1]; first compound 0.001 µM) | relative viability ([1]; first compound 0.003162 µM) | relative viability ([1]; first compound 0.01 µM) | relative viability ([1]; first compound 0.03162 µM) | relative viability ([1]; first compound 0.1 µM) | relative viability ([2]; first compound 0.001 µM) | relative viability ([2]; first compound 0.003162 µM) | relative viability ([2]; first compound 0.01 µM) | relative viability ([2]; first compound 0.03162 µM) | relative viability ([2]; first compound 0.1 µM) | relative viability ([3]; first compound 0.001 µM) | relative viability ([3]; first compound 0.003162 µM) | relative viability ([3]; first compound 0.01 µM) | relative viability ([3]; first compound 0.03162 µM) | relative viability ([3]; first compound 0.1 µM) | relative viability ([4]; first compound 0.01 µM) | relative viability ([4]; first compound 0.03162 µM) | relative viability ([4]; first compound 0.1 µM) | relative viability ([4]; first compound 0.3162 µM) | relative viability ([4]; first compound 1 µM)
SK-LU-1 | 0.331 | 0.442 | 0.336 | 0.266 | 0.171 | 0.518 | 0.653 | 0.541 | 0.201 | 0.15 | 0.342 | 0.371 | 0.343 | 0.0891 | 0.109 | 0.455 | 0.396 | 0.539 | 0.457 | 0.512
LXF-289 | 0.586 | 0.582 | 0.569 | 0.0924 | 0.12 | 0.753 | 0.776 | 0.644 | 0.0604 | 0.0625 | 0.186 | 0.186 | 0.104 | 0.0498 | 0.0494 | 0.666 | 0.668 | 0.726 | 0.57 | 0.693
NCI-H2009 | 0.186 | 0.275 | 0.201 | 0.0584 | 0.0475 | 0.859 | 1.07 | 0.753 | 0.126 | 0.0415 | 0.781 | 0.871 | 0.723 | 0.748 | 0.0938 | 0.268 | 0.277 | 0.26 | 0.217 | 0.301
HCC-827 | 0.499 | 0.459 | 0.72 | 0.459 | 0.159 | 1.06 | 1.08 | 1.06 | 1.05 | 0.487 | 0.366 | 0.397 | 0.47 | 0.411 | 0.265 | 0.462 | 0.567 | 0.53 | 0.508 | 0.552
NCI-H3122 | 0.238 | 0.222 | 0.191 | 0.187 | 0.132 | 0.585 | 0.615 | 0.6 | 0.602 | 0.34 | 0.371 | 0.428 | 0.418 | 0.38 | 0.132 | 0.207 | 0.219 | 0.197 | 0.21 | 0.238
NCI-H2126 | 0.374 | 0.372 | 0.337 | 0.346 | 0.278 | 0.557 | 0.477 | 0.512 | 0.555 | 0.446 | 0.904 | 0.926 | 0.936 | 0.777 | 0.408 | 0.511 | 0.539 | 0.557 | 0.55 | 0.591
HARA | 0.28 | 0.257 | 0.306 | 0.182 | 0.0965 | 0.422 | 0.609 | 0.385 | 0.0609 | 0.0598 | 0.11 | 0.106 | 0.117 | 0.0557 | 0.0586 | 0.646 | 0.525 | 0.958 | 0.976 | 0.564
LC-2-ad | 0.549 | 0.495 | 0.488 | 0.481 | 0.32 | 0.448 | 0.525 | 0.455 | 0.149 | 0.16 | 0.466 | 0.453 | 0.498 | 0.279 | 0.24 | 0.899 | 0.985 | – | – | 0.892
